Assay results: patent publication US11807627B2, “Morphic forms of complement factor D inhibitors” (priority 2018, dated 2023)
Converted amounts (≈) assume the structure as drawn.

Key:
[1] = Variable humidity XRPD (VH-XRPD); type: physicochemical; conditions: between 0 and 90% RH
Procedure: […] analysis was carried out on a Philips X'Pert Pro Multipurpose diffractometer equipped with a humidity chamber. The samples were scanned between 4 and 35.99°2θ using Cu K radiation (α1λ=1.54060 Å; α2=1.54443 Å; β=1.39225 Å; α1; α2 ratio=0.5) running in Bragg-Brentano geometry (step size 0.008°2θ) using 40 kV/40 mA generator settings. Table 10 details the humidity program used.

Milling of Form A = type: physicochemical; conditions: 2 min milling (5000 RPM); initial and repeat runs
Procedure: Compound 3 Form A material was milled using a Precellys® Evolution SUPER Homogenizer. Approximately 50 mg of Compound 3 Form A was weighed into 2×plastic 2 mL bead mill vials and 5×2.4 […] metal beads were placed into each vial. Sample 1 was milled using the following: RPM=5000; Cycles=2×60 seconds; Pause=10 seconds (between cycles). Sample 2 was milled using the above method but 5×60 seconds cycles instead of2×60 seconds. After milling, a sub-sample was taken from each and analyzed by XRPD and PLM. The above procedure was repeated and the resulting samples were analyzed by XRPD and DSC analysis.

[2] = Storage stability of Compound 3 forms (80° C., 40° C./75% RH, 25° C./60% RH, ambient); type: physicochemical
[3] = Enabling form study: solubility from RT slurry in solvents (Table 2); type: physicochemical; conditions: organic solvent or mixture, thermodynamic from solid
Procedure: (§1) A solution of Compound 3 and solvent/solvent system of interest was prepared. Solids persisted in solution. The samples were placed onto a stir plate at ambient (RT) or elevated (ET) temperatures. The samples were monitored to ensure that solids persisted during the slurry process. The solids were collected via vacuum filtration and dried under ambient conditions.
An enabling form study was also carried out (Table 2).

[4] = Solid state stress testing (temperature, humidity, storage, photostability); type: physicochemical
[5] = Caco2 permeability and efflux ratio; type: in vitro ADME; conditions: human, Caco-2; Caco2; read-out: Efflux ratio (B-A/A-B)
Caco2 = Caco2 permeability and efflux ratio; type: in vitro ADME; conditions: A-B
[6] = Polymorph study: crash cooling; type: physicochemical
Procedure: Saturated solutions of Compound 3 produced from temperature cycling experiments were placed into a fridge to crash cool to 4° C. After about 4 days, observations were made and solids produced were isolated using centrifuge filtration and analyzed by XRPD. Where no solids were recovered, solutions were placed into a freezer (−20° C.) for 14 days. Any solids produced were isolated by centrifuge filtration and analyzed by XRPD (Table 19).

[7] = Polymorph study: anti-solvent addition; type: physicochemical
Procedure: Anti-solvent additions were completed on saturated solutions of Compound 3 produced from temperature cycling experiments. Precipitation of solids was observed (before anti-solvent additions were completed) from selected solvent systems when storage under ambient conditions. Precipitated solids were analyzed by XRPD and re-dissolved using gentle heating and addition of minimal solvent. An appropriate anti-solvent was added to each saturated solution in 50μL aliquots until precipitation was observed or a total of 1 mL anti-solvent had been added. Samples where solids were precipitated were isolated using centrifuge filtration and analyzed by XRPD. […] Samples where solids had precipitated were isolated using centrifuge filtration and analyzed by XRPD (Table 20A and Table 20B).

[8] = Interconversion experiments: competitive slurries (Example 2, Table 6); type: physicochemical; conditions: Forms A and G vs Form B, ethyl acetate, ambient and approximately 50° C.
Procedure: as §1, with “conditions. […] At ambient temperature, Forms B and M are both present after almost a week of slurrying.” for “conditions.”

[9] = 70% 2-Propanol / 30% Heptane (% v/v)
[10] = 70% 2-Propanol / 30% Water (% v/v) aw = 0.8
[11] = 95% 2-Propanol / 5% Heptane (% v/v)
[12] = 95% Heptane / 5% 2-Propanol (% v/v)
[13] = 95% Methanol / 5% Water (% v/v) calc. aw = 0.2
[14] = 50% 2-Propanol / 50% Heptane (% v/v)

CC(=O)c1nn(CC(=O)N2[C@H](C(=O)Nc3nc(Br)ccc3C)C[C@@]3(C)C[C@@H]23)c2ccc(-c3cnc(C)nc3)cc12 [Compound 3 Form A]
VH-XRPD: change in form with humidity [1]: no changes in form | Milling: XRPD (Milling of Form A): Amorphous | 1 week stability: 25° C./60% RH XRPD (uncapped) ([2]; 1 week, WC = weakly crystalline): WC Form A | Stability: form by XRPD after storage ([2]; 25° C./60% RH, uncapped vial): weakly crystalline Form A

CC(=O)c1nn(CC(=O)N2[C@H](C(=O)Nc3nc(Br)ccc3C)C[C@@]3(C)C[C@@H]23)c2ccc(-c3cnc(C)nc3)cc12 [Compound 3, (1R,3S,5R)-2-(2-(3-acetyl-5-(2-methylpyrimidin-5-yl)-1H-indazol-1-yl)acetyl)-N-(6-bromo-3-methylpyridin-2-yl)-5-methyl-2-azabicyclo[3.1.0]hexane-3-carboxamide]
solubility ([3]; ethyl acetate, EtOAc): ~14500 µg/mL (≈ 24.1 mM) | solubility ([3]; isopropanol, IPA): ~5600 µg/mL (≈ 9.29 mM) | solubility ([3]; MTBE): ~1200 µg/mL (≈ 1.99 mM) | solubility ([3]; Toluene): ~13600 µg/mL (≈ 22.6 mM) | Solid State Stress Testing: Room Temperature storage [4]: No degradation | Solid State Stress Testing: Humidity ([4]; 40° C./75% RH): No degradation | Solid State Stress Testing: Elevated temperature ([4]; 105° C. - 24 hr): No degradation | Solid State Stress Testing: Photostability ([4]; exposure to UV visible): No light senstitivity | efflux ratio [5]: 2.2 | Caco2: A-B (Caco2): Caco2: A-B ~17 × 10^−6 cm/s | Crystallization technique: Cooling ([6]; 1-Butanol): Form A | Crystallization technique: Cooling ([6]; 2-Methyl Tetrahydrofuran): Clear solution | Crystallization technique: Cooling ([6]; 2-Propanol): Form A | Crystallization technique: Cooling ([6]; 40% Ethanol / 60% Water (% v/v) calc. aw = 0.7): Amorphous | Crystallization technique: Cooling ([6]; 50% 2-Propanol / 50% Heptane (% v/v), WC = weakly crystalline): Form A (WC) | Crystallization technique: Cooling ([6]; 50% Acetonitrile / 50% Water (% v/v) calc. aw = 0.9): Clear solution | Crystallization technique: Cooling ([6]; 50% Ethanol / 50% Heptane (% v/v)): Form A | Crystallization technique: Cooling [6, 9]: Clear solution | Crystallization technique: Cooling [6, 10]: Clear solution | Crystallization technique: Cooling [6, 11]: Form A | Crystallization technique: Cooling [6, 12]: Clear solution | Crystallization technique: Cooling [6, 13]: Clear solution | Crystallization technique: Cooling ([6]; Acetone): Form A | Crystallization technique: Cooling ([6]; Acetonitrile): Clear solution | Crystallization technique: Cooling ([6]; Ethanol): Amorphous | Crystallization technique: Cooling ([6]; Ethyl Acetate (dry)): Amorphous | Crystallization technique: Cooling ([6]; Methanol): Clear solution | Crystallization technique: Cooling ([6]; Methylethyl Ketone): Clear solution | Crystallization technique: Cooling ([6]; Methylisobutyl Ketone): Clear solution | Crystallization technique: Cooling ([6]; Tetrahydrofuran): Clear solution | Crystallization technique: Cooling ([6]; Toluene): Amorphous | Crystallization technique: Cooling ([6]; n-Heptane): Clear solution | Crystallization technique: Cooling ([6]; tert-Butylmethyl Ether): Clear solution | Crystallization technique: Anti-solvent Additions ([7]; 1-Butanol, *solids that precipitated under ambient conditions, WC = weakly crystalline): Form A (WC) * | XRPD analysis after re- dissolution and storage at 4° C. for ca. 48 hours ([7]; 1-Butanol, WC = weakly crystalline): WC Form A | XRPD analysis after re- dissolution and storage at 4° C. for ca. 48 hours ([7]; 2-Propanol): Form A | Crystallization technique: Anti-solvent Additions ([7]; 2-Propanol, *solids that precipitated under ambient conditions): Form A* | Crystallization technique: Anti-solvent Additions ([7]; 40% Ethanol / 60% Water (% v/v) calc. aw = 0.7, *solids that precipitated under ambient conditions): Mixture L + M* | Observation after re-dissolution and anti-solvent addition [7, 14]: Clear solution | Observations after storage in the fridge for ca. 48 hours [7, 14]: Clear solution | Crystallization technique: Anti-solvent Additions ([7]; 50% 2-Propanol / 50% Heptane (% v/v), *solids that precipitated under ambient conditions, WC = weakly crystalline): Form A (WC) * | Crystallization technique: Anti-solvent Additions ([7]; 50% Ethanol / 50% Heptane (% v/v), *solids that precipitated under ambient conditions): Form A* | XRPD analysis after re- dissolution and storage at 4° C. for ca. 48 hours ([7]; 50% Ethanol:50% Heptane (% v/v)): Form A | Observation after re-dissolution and anti-solvent addition [7, 9]: Clear solution | Observations after storage in the fridge for ca. 48 hours [7, 9]: Clear solution | Observations after storage in the fridge for ca. 48 hours ([7]; 70% 2-Propanol / 30% Heptane (% v/v) re-prepared sample): Clear solution | Crystallization technique: Anti-solvent Additions ([7]; 70% 2-Propanol / 30% Heptane (% v/v), *solids that precipitated under ambient conditions): Mixture L + M* | Crystallization technique: Anti-solvent Additions [7, 10]: Clear solution | Observations after storage in the fridge for ca. 48 hours [7, 10]: Clear solution | XRPD analysis after re- dissolution and storage at 4° C. for ca. 48 hours [7, 11]: Form A | Crystallization technique: Anti-solvent Additions ([7]; 95% 2-Propanol / 5% Heptane (% v/v), *solids that precipitated under ambient conditions): Form A* | Observations after storage in the fridge for ca. 48 hours [7, 12]: Clear solution | Crystallization technique: Anti-solvent Additions [7, 13]: Clear solution | Observations after storage in the fridge for ca. 48 hours ([7]; 95% Methanol:5% Water (% v/v) calc. aw = 0.2): Clear solution | XRPD analysis after re- dissolution and storage at 4° C. for ca. 48 hours ([7]; Acetone): Form A | Crystallization technique: Anti-solvent Additions ([7]; Acetone, *solids that precipitated under ambient conditions): Form A* | Observations after storage in the fridge for ca. 48 hours ([7]; Acetonitrile): Clear solution | XRPD analysis after re- dissolution and storage at 4° C. for ca. 48 hours ([7]; Ethanol): Form A | Crystallization technique: Anti-solvent Additions ([7]; Ethanol, *solids that precipitated under ambient conditions): Form A* | Observations after storage in the fridge for ca. 48 hours ([7]; Ethyl Acetate (dry)): White solid | XRPD analysis after re- dissolution and storage at 4° C. for ca. 48 hours ([7]; Ethyl Acetate (dry)): Amorphous | Crystallization technique: Anti-solvent Additions ([7]; Ethyl Acetate (dry), *solids that precipitated under ambient conditions): Form A* | Crystallization technique: Anti-solvent Additions ([7]; Methanol): Clear solution | Observations after storage in the fridge for ca. 48 hours ([7]; Methanol): Clear solution | Crystallization technique: Anti-solvent Additions ([7]; Methylethyl Ketone): Form A | Crystallization technique: Anti-solvent Additions ([7]; Methylisobutyl Ketone): Form B | Crystallization technique: Anti-solvent Additions ([7]; Tetrahydrofuran): Form A | Crystallization technique: Anti-solvent Additions ([7]; Toluene): Amorphous | Crystallization technique: Anti-solvent Additions ([7]; n-Heptane): Clear solution

CC(=O)c1nn(CC(=O)N2[C@H](C(=O)Nc3nc(Br)ccc3C)C[C@@]3(C)C[C@@H]23)c2ccc(-c3cnc(C)nc3)cc12 [Form B]
Relative stability in competitive slurry [8]: more stable form
